Holding throughout (assay type): cell-based, mouse
Test [1] deals with NIH-3T3 cells. Nature of the test: Western blot of NIH-3T3 cells (collagen I, GCN2, ATF4, PC). Conditions: for rescue of TGFβ-induced collagen I depletion: metabolite; for GCN2 activation: cell-permeable metabolite. The text has this: (§1) PSCs were isolated from C57BL/6 mice by differential centrifugation as previously described^49 and their mesenchymal origin was validated by analyzing the expression of various mesenchymal and epithelial markers. MFBs were isolated from FVB/N mice by differential centrifugation as previously described^50. DB7 mouse breast cancer cells were obtained from Alexander Borowsky (University of California Davis Comprehensive Cancer Center, Sacramento, CA, USA) through an MTA to Ohio State University (OSU). KPC (Kras^LSL-G12D; Trp53^LSL-R172H; Pdx1-Cre) mouse PDAC cells were a gift from Scott Lowe (Memorial Sloan Kettering Cancer Center. (MSKCC)). All cells were cultured at 37° C. in 5% carbon dioxide (CO2) and 20% oxygen (O2) and were maintained in Dulbecco's Modified Eagles medium (DMEM) (25 mM D-glucose, 2 mM L-glutamine) supplemented with 10% fetal bovine serum (FBS) (Gemini), 100 units/ml penicillin and 100 μg/ml streptomycin. Primary PSC and MFB cells were kept in culture for no more than ten passages. Experiments with iCAFs and myCAFs were performed as previously described^29. In brief, qPSCs were generated by culturing PSCs in a dome of GFR Matrigel (Corning) in DMEM; iCAFs were generated by culturing PSCs in a dome of GFR Matrigel in DMEM conditioned by KPC cells for 48 h; myCAFs were generated by monolayer culture of PSCs. Differentiation was validated by analyzing the expression of iCAF/myCAF markers^29. For experiments with different glutamine concentrations, cells were seeded in regular DMEM and the medium was changed 5-6 hours later or the following day to glucose and glutamine-free DMEM supplemented with 10% dialyzed FBS (Gemini) and 20 mM D-glucose, 2 mM L-glutamine (100%), 0.4 mM L-glutamine (20%) or 0.2 mM L-glutamine (10%). All media were prepared by the Media Preparation Facility at MSKCC. Cells were verified as mycoplasma-free by the MycoAlert Mycoplasma Detection Kit (Lonza).
Lysates were generated by incubating cells or ground tumors in RIPA buffer (Millipore); […] of cleared lysate were analyzed by SDS-polyacrylamide gel electrophoresis (SDS-PAGE) as previously described^11. […] The following secondary antibodies were used: anti-rabbit horseradish peroxidase (HRP) (1:5,000; GE, NA934V), anti-mouse HRP (1:5,000; GE, NA931). Quantification of band intensities of collagen I relative to […] or vinculin in tumor allograft experiments was performed with Image Lab software v6.0 (Bio-Rad).
Background: A western blot detects proteins with antibodies after separation by electrophoresis.

Test [2] deals with NIH-3T3 cells. Put plainly: Translation assay (OPP), NIH-3T3 cells. Conditions: TGFβ. The procedure: Cells were treated as indicated and incubated with 20 μM O-propargyl-puromycin (OPP, Thermo Scientific) for the last 1 hour of the experiment. Cells were harvested by trypsinization and fixed with methanol at −20° C., followed by permeabilization with 0.5% Triton X-100 in phosphate-buffered saline (PBS).

Test [3] relates to NIH-3T3 cells. Put plainly: tRNA charging assay, NIH-3T3 cells. The procedure: Charging status of the indicated tRNA isodecoders was measured as previously described^20. In brief, Trizol-chloroform extracts were precipitated with 2.7× volumes of cold ethanol in the presence of 30 μg GlycoBlue (ThermoFisher) overnight. Samples were resuspended in 0.3 M acetate buffer (pH 4.5) with 10 mM ethylenediamine tetraacetic acid (EDTA) and precipitated overnight. Samples were resuspended in 10 mM acetate buffer with 1 mM EDTA. 2 μg of each RNA sample was treated with 10 mM of either sodium periodate (Sigma) (‘oxidized sample’) or sodium chloride (‘non-oxidized sample’) and incubated for 20 minutes at room temperature in the dark. Reactions were quenched with glucose for 15 minutes. Yeast Phe-tRNA (Sigma) was spiked into each sample, followed by ethanol precipitation. Samples were resuspended in 50 mM Tris buffer (pH 9) and incubated for 50 minutes at 37° C., quenched with acetate buffer and precipitated. […] Reverse transcription was performed with SuperScript IV reverse transcriptase (Thermo Scientific) according to the manufacturer's instructions, with a primer complementary to the DNA adaptor. cDNA samples were subjected to qPCR with tRNA isodecoder-specific primer pairs listed in Supplementary Table 1. Ct values obtained with primers specific for yeast Phe-tRNA were subtracted from Ct values obtained with isodecoder-specific primers. The charged fraction was calculated based on the relative difference between the delta-Ct value of a non-oxidized (representing total) and oxidized (representing charged) sample for each primer pair.

The subject of test [4] is pancreatic stellate cells (PSCs). Nature of the test: Western blot of PSCs. Conditions: PSCs, TGFβ.
Excerpt: as §1, with “For experiments with different glutamine concentrations, cells were seeded in regular DMEM and the medium was changed 5-6 hours later or the following day to glucose and glutamine-free DMEM supplemented with 10% dialyzed FBS (Gemini) and 20 mM D-glucose, 2 mM L-glutamine (100%), 0.4 mM L-glutamine (20%) or 0.2 mM L-glutamine (10%). All media were prepared by the Media Preparation Facility at MSKCC. Cells were verified as mycoplasma-free by the MycoAlert Mycoplasma Detection Kit (Lonza).” left out
Lysates were generated by incubating cells or ground tumors in RIPA buffer (Millipore); […] of cleared lysate were analyzed by SDS-polyacrylamide gel electrophoresis (SDS-PAGE) as previously described^11. […] Quantification of band intensities of collagen I relative to […] or vinculin in tumor allograft experiments was performed with Image Lab software v6.0 (Bio-Rad).

The mark [5] stands for this setting: PC-deleted cells, low Gln, 48 hours (FIG. 4B; MFBs FIG. 11E).
Where [6] appears, read: low Gln (10%), TGFβ, 48 hours (FIG. 1E).

The results in this text go back to patent US20260152533A1, “COMBINATION INHIBITORS FOR TREATING FIBROSIS” (Memorial Sloan-Kettering Cancer Center, priority 2021, published 2026).

Entries after “also recorded” stand apart in the source; their conditions may differ.

Regarding `COC(=O)CC[C@H](N)C(=O)OC` [dm-Glu, L-glutamic acid dimethylester], in test [1] (10% Gln, TGFβ, 48 hours), the “rescue of TGFβ-induced collagen I depletion” value is “sufficient to restore”. Also, the “collagen I levels” value in test [1] (setting [5]) is “increased”. In test [1] (low Gln (10%), TGFβ, 48 hours), the GCN2 activation result was “prevented”.

In the case of `COC(=O)CCC(=O)C(=O)OC` [dm-αKG, dimethyl alpha-ketoglutarate], the translation entry in test [2] (10% Gln, dm-αKG (FIG. 2B)) is reported as “promoted”. The “charging of glutamine-tRNA” value in test [3] (10% Gln, TGFβ 2 ng/mL, dm-αKG 5 mM with or without MSO 2 mM, 48 hours (FIG. 2A)) is “restored”. Moreover, the “rescue of TGFβ-induced collagen I depletion” value in test [1] (10% Gln, TGFβ, 48 hours) was “able to rescue”. Further, the “collagen I levels” value in test [1] (setting [5]) is “increased”. Moreover, the GCN2 activation entry in test [1] (low Gln (10%), TGFβ, 48 hours) was “prevented; also recorded: suppressed”.

As to “TGFβ: transforming growth-factor beta; TGFβ-1 purchased from Peprotech”, the “collagen I production” value is “unable to proliferate and produce collagen I” in test [4] (20% Gln, 48 hours); “ceased to proliferate and produce collagen I” in test [1] (10% Gln, TGFβ). Further, the GCN2 phosphorylation entry in test [4] (low Gln (20%), 48 hours (FIG. 8J)) is listed as “showed GCN2 phosphorylation”; in test [1] (setting [6]), “displayed phosphorylation”. For the same compound, the bulk translation entry in test [2] (low Gln (10%), 48 hours, compared to control cells (FIG. 1F)) is recorded as “reduced”. The “charging state of glutamine-tRNA” value in test [3] (low Gln (10%), TGFβ, 48 hours (FIG. 1D)) was “profound uncharging”. Further, the “collagen I levels” value in test [1] (20% Gln, TGFβ, 48 hours (FIG. 1B)) was “no longer able to increase”. Also, the “repressive phosphorylation of the E1α subunit of the pyruvate dehydrogenase (PDH) complex” value in test [1] (100% Gln, TGFβ 48 hours (FIG. 3B)) is listed as “reduced”. The “collagen I levels in growing cells” value in test [1] (100% and 50% Gln, TGFβ, 48 hours) is listed as “upregulated”. Moreover, in test [1] (all fibroblast types analysed, TGFβ 48 hours), the PC protein levels result is on record as “reduced”. Also, the ATF4 result in test [1] (setting [6]) is listed as “upregulated”.
